Data as given in patent publication EP3502102A1, “STING INHIBITORS” (ECOLE POLYTECHNIQUE FEDERALE DE LAUSANNE (EPFL), priority 2017, dated 2019).
Positions count from the first letter of the chain named.

What was measured:
mmSTING [1] = molecular target: T1, mmSTING (Mus musculus, UniProt Q3TBT3, V27A); assay: Gel-based analysis of C-176-22 labelling (click chemistry, in-gel fluorescence) in HEK293T cells; type: binding; details: STING V27A; 0.25 µM
T1 construct: expressed in transfected cells; host or cells: HEK293T (lentiviral transduction, induced overnight)
T1 sequence (Q3TBT3 1-378 V27A): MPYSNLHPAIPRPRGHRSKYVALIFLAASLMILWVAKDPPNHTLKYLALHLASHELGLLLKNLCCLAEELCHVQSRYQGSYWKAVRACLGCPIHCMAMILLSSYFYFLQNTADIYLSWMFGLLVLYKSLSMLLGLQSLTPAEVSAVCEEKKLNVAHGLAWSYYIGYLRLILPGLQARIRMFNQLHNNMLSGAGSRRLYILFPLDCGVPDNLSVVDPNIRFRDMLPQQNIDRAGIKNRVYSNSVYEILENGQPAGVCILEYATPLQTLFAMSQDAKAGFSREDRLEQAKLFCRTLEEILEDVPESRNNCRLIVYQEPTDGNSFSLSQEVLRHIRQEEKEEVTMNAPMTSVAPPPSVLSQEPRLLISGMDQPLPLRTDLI
Experimental: (§1) Reporter activity was measured 16 h after compound treatment. A nonlinear regression analysis was performed. […] Cytokine levels were normalized to DMSO-treated control cells. […] Nuclei were stained with DAPI. […] Depicted genes were measured by RT-qPCR. […] 16 h later Luciferase activity was measured. […] Flag-STING was immunoprecipitated and analysed by autoradiography.
(§2) HEK293T cells expressing Flag-STING were incubated with C-176-22 (0.25 µM) in serum free media, collected in PBSs and lysed by repetitive freezing and thawing. 43 µl of lysed cells were treated with freshly prepared "click reagent" mixture containing tris(benzyltriazolylmethyl)amine (TBTA) (3 µl/sample, 3 mM in 1:4 DMSO:t-ButOH), tetramethylrhodamine (TAMRA) azide (2 µl/sample, 1.25 mM in DMSO), and freshly prepared CuSO4 (1 µl/sample) and tris-(2-carboxyethyl)phosphine hydrochloride (TCEP) (1µl/sample) and incubated at room temperature for 1 h. The reaction was quenched by addition of reducing sample buffer. In-gel fluorescence was visualized using Fusion FX (Vilber Lourmat) and analysed by Fusion capt advance acquisition software.
(§3) We next sought to elucidate the molecular details of the interaction between C-178 and the TM part of STING. Our SAR studies highlighted the importance of the nitrofuran motif for the activity of the discovered inhibitors. Given the strong electrophilic potential of this group, we suspected that C-178 might react with a TM residue generating a covalent interaction. […] To further test the hypothesis of covalent engagement of STING, we synthesized a derivative of C-176-22, which bears an alkyne group amenable for copper-catalyzed azide alkyne cycloaddition (Click Chemistry) and performed gel-based profiling studies (Fig. 3d). Having verified that C-176-22 is still active (Fig. 7), HEK293T cells expressing STING were exposed to C-176-22, lysed, coupled to a tetramethylrhodamine (TAMRA-)azide tag and C-176-22-modified proteins were visualized using in-gel fluorescence scanning. HEK293T cells without STING served as a control for assessing non-specific protein labelling. […] Based on the observed mass shift, we postulate a nitrobenzyl rearrangement-like reaction to generate covalent bonding between C-178 and STING (see below). […] We next sought to identify the residue through which C-178 achieves binding to STING. Among the naturally occurring amino acids, cysteine residues are well-known targets of electrophilic small molecules. […] In addition, binding to and inhibition of STING are two separable functions of C-178.

mmSTING [2] = assay: as above; type: binding, mouse; details: for labelling of STING mutant: 0.25 µM; for labelling of other protein targets / proteome-wide selectivity: whole cell lysate, C-176-22 0.25µM
Experimental: as §1, §2, §3

mmSTING [3] = molecular target: T2, mmSTING (Mus musculus, UniProt Q3TBT3); assay: as above; type: binding; details: HEK293T expressing STING
T2 construct: expressed in transfected cells; host or cells: HEK293T (lentiviral transduction, induced overnight)
T2 sequence (Q3TBT3 1-378): T1 sequence (Q3TBT3 1-378 V27A) with A27V
Experimental: as §1, §2, §3

STING = molecular target: T3, STING (Mus musculus, UniProt Q3TBT3); assay: IFN-beta luciferase reporter in HEK293T cells transfected with STING, alone or with a cyclic dinucleotide synthase; type: cell-based; design: expressed in transfected cells; host or cells: HEK293T; details: HEK293T transfected with mmSTING, 16 h
T3 sequence (Q3TBT3 1-378): T1 sequence (Q3TBT3 1-378 V27A) with A27V
Experimental: as §1
HEK293T cells expressing murine STING with an N-terminal mCherry-tag ^28 were transfected using GeneJuice (Millipore) with a construct encoding for cyclic di-GMP synthase in conjunction with an IFN-• firefly luciferase reporter plasmid. 3 h after transfection cells were seeded in […] (Corning) coated with library compounds. For each compounds, a 40 nl volume was selected to obtain a concentration of 10 µM in the assay plates. The amount of DMSO in each well was normalised to 0.1%. After overnight treatment, cells were lysed in lysis buffer (25 mM Tris-phosphate (pH 7.8), 2 mM DTT, 2 mM 1,2-diaminocyclohexane-N,N,N',N'-tetraacetic acid, 10% glycerol, 1% Triton® X-100) for 20 min followed by the addition of firefly luciferase. Reporter activity was measured using a Tecan Infinite plate reader. The screen was performed using on ∼ 20.000 compounds from a chemically diverse compound collection available at the BSF core facility at EPFL.
In these cells, transient transfection of vectors encoding for cyclic di-GMP synthase (cdG-Syn) and an IFN-• reporter leads to robust induction of firefly luciferase activity. We used this system to perform a high-throughput chemical screen with a library of ∼ 20.000 small molecule compounds (Fig. 6b). To increase the selectivity of candidate compounds against the STING pathway, hits from the primary screen were counter-screened for their effect on RIG-I-driven activation of the IFN-• reporter. […] To further validate the two small molecules, we treated wild-type HEK293T cells with C-178 and C-176, in which STING was either expressed alone or in conjunction with cdG-Syn. […] We next conducted a limited structure-activity relationship (SAR) analysis. Since both C-178 and C-176 share a characteristic nitrofuran moiety, we prepared analogues of C-176/8 in which this structural motif was substituted (Fig. 1c).

hsSTING = molecular target: T4, hsSTING (Homo sapiens, UniProt Q86WV6); assay: Gel-based analysis of C-176-22 labelling in HEK293T cells expressing human STING; type: binding; details: HEK293T cells that expressed human STING
T4 construct: expressed in transfected cells; host or cells: HEK293T
T4 sequence (Q86WV6 whole entry): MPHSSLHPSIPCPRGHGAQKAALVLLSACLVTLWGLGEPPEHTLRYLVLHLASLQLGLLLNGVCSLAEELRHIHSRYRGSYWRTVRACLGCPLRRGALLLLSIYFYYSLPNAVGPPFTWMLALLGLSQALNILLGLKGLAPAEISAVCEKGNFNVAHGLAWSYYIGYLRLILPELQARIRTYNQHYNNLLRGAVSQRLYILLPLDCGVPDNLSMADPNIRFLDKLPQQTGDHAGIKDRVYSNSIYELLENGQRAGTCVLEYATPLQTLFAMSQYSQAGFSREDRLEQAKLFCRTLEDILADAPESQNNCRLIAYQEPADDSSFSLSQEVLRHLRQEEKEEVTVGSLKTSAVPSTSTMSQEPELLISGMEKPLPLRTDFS
Experimental: as §1
HEK293T cells expressing Flag-STING were incubated with C-176-22 (0.25 µM) in serum free media, collected in PBSs and lysed by repetitive freezing and thawing. […] In-gel fluorescence was visualized using Fusion FX (Vilber Lourmat) and analysed by Fusion capt advance acquisition software.
We next sought to elucidate the molecular details of the interaction between C-178 and the TM part of STING. […] Having verified that C-176-22 is still active (Fig. 7), HEK293T cells expressing STING were exposed to C-176-22, lysed, coupled to a tetramethylrhodamine (TAMRA-)azide tag and C-176-22-modified proteins were visualized using in-gel fluorescence scanning. […]

labelling of STING mutant (mmSTING [1]): efficiently interacted
labelling of STING, in-gel fluorescence signal (37 kDa) (mmSTING [3]): marked, dose-dependent signal
inhibitory activity, IFN-• luciferase reporter (STING): still active
inhibitory activity, IFN-• luciferase reporter (STING; listed as C176L): inhibitory active
labelling of human STING (hsSTING): hardly detectable, if at all
SMILES: C#Cc1ccc(NC(=O)c2ccc([N+](=O)[O-])o2)cc1 [C-176-22]
labelling band in cells without STING (mmSTING [2]; HEK293T cells that lacked STING expression): not detectable
labelling of STING mutant (mmSTING [2]; cysteine-to-alanine or cysteine-to-serine mutation at position 91): completely abolished
labelling of STING mutant (mmSTING [2]; mutated C88): did not influence
labelling of other protein targets / proteome-wide selectivity (mmSTING [2]): negligible labelling
labelling of other protein targets / proteome-wide selectivity (mmSTING [2]; listed as C176L): highly specifically labels mmSTING
